Measurements as given in US20220162215A1, “COMPOSITIONS AND METHODS OF USING THE SAME FOR TREATMENT OF NEURODEGENERATIVE AND MITOCHONDRIAL DISEASE” (MITOKININ, INC., priority 2019, published 2022).
Read-outs that look alike come from different tables or passages of the source.

Tests used:
[1] = test system: phospho-serine 129 synuclein (pS129); assay: Preformed α-syn amyloid fibril (PFF) primary neuron model; format: cell-based, mice
Protocol: Briefly, primary hippocampal neurons were derived and cultured following standard protocols. At DIV-7, the cultures were treated with PFFs. At DIV-10, the cultures began treatment with a Mitokinin compound or vehicle controls, such treatment continuing for the duration of the experiment. The cultures were fixed and stained for alpha synuclein, TUJ1, and MAP2 at DIV-14, and analysis performed by unbiased imaging on an ImageXpress Confocal microscope and quantified by Molecular Devices' MetaXpress software.

[2] = In vivo pharmacokinetic properties (Table 7)
[3] = In vivo summary, pharmacokinetics, mouse
Protocol: (§1) Referring to Tables 8A-C below, an in vivo summary of EP-0035985 IV at 1 mg/kg (8A), PO 10 mg/kg (8B), and a tissue distribution, mouse (8C) is shown below.

[4] = Visual inspection of crystallization; format: physicochemical; design: key: 1: yes crystals; 0: no crystals; details: Tables 5A-5D
Protocol: (§2) Briefly, the Hela MKYP (Mito-Keima/YFP-Parkin) cells were seeded at 10K cells/well. EP/MTK compounds were added at seeding (cells were still in suspension). The cells were incubated with the EP/MTK compounds for 16 hours, then 1 μM FCCP/oligomycin was added for 6 hours. Prior to harvesting, cells were scored by eye under 20× magnification for the presence or absence of crystalline or aggregated compound, or round cells.

HeLa MKYP cells = assay: Toxicity / cell death measured by DAPI staining (take-up); format: cell-based
Protocol: H2O2 treatment was performed as a control for cell death as measured by DAPI staining.
Briefly, HeLa MKYP cells were plated at 10,000 cells/well in 96 well plates along with compounds at various concentrations. Following 16 hrs of incubation, cells were treated with 1 uM FCCP/oligomycin for 6 hours, then analyzed via FACS for the presence of mitochondria in lysosomes (as determined by an emissions spectrum shift from the pH-sensitive mtKeima tag).

pS129 α-synuclein = pS129 α-synuclein in human iPSC derived neurons; format: cell-based; details: FIG. 21
PINK1 = biological target: T1, PINK1 (Homo sapiens, UniProt Q9BXM7); assay: pS65 Ubiquitin ELISA assay (HeLa-MKYP WT or PINK1 KO); format: cell-based; details: PINK1wt vs PINK1ko cells, FIG. 17A
T1 construct: for each cell type tested (HeLa-MKYP WT or PINK1^KO); endogenous in cells; host or cells: HeLa-MKYP (WT) / HeLa cells
Protocol: HeLa-MKYP cells were plated at 10,000 cells/well in 96-well plates along with compounds at various concentrations. Following 16 hours of incubation, cells were treated with 1 μM FCCP/oligomycin (F/O) along with compounds at various doses for 2-3 hours. Appropriate controls were included on each plate to obtain a maximum signal from treatment with 10 μM F/O or, and a minimum signal from cells treated with no F/O with DMSO for each cell type tested (HeLa-MKYP WT or PINK1^KO). At the desired timepoint, media was removed and cells were frozen prior to lysis. Cells lysates were denatured by boiling, prior to analysis by a custom ELISA assay using commercially available antibodies (using anti-phospho-ubiquitin as a capturing antibody, and anti-total ubiquitin as a detection antibody). Purified pS65 ubiquitin was used to generate a standard curve and determine timing for ELISA reaction development.

[5] = test system: Hela MKYP (Mito-Keima/YFP-Parkin) cells; assay: Inspection of round cells; details: Tables 6A-6D
Protocol: as §2

[6] = Tissue distribution, mouse; format: in vivo
Protocol: as §1

T1 sequence (Q9BXM7 78-581): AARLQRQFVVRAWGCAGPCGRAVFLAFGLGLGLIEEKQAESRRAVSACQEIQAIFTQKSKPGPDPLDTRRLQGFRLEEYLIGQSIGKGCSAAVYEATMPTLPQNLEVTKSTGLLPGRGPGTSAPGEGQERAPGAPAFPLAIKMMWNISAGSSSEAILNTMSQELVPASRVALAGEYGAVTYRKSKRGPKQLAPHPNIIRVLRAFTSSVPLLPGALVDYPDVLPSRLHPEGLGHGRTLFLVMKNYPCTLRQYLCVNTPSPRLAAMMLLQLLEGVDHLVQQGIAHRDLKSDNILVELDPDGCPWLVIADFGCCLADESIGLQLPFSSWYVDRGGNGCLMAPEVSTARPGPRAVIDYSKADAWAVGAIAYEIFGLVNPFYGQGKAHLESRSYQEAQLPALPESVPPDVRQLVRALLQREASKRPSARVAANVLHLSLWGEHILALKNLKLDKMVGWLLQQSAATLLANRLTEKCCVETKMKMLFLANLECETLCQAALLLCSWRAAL

For `FC(F)(F)c1cc2c(NC3CCCc4ccccc43)ncnc2[nH]1` (stereo not shown) [Compound 15], the EC50 ([1]; FIG. 22A, 22B, read-out: EC50 of decrease of pS129 synuclein increase driven by PFF addition) was 981 nM, the “pS129 synuclein in PINK1ko cell lines” value ([1]; PINK1ko, FIG. 22C) was “does not decrease pS129 synuclein in PINK1^ko cell lines” and the “AUC (obs)” value ([2]; IV (1 mg/kg)) was 1.4 µM·h. The Cmax ([2]; IV (1 mg/kg)) was 1450 nM, the Cmax ([2]; PO (10 mg/kg)) was 1080 nM and the F % ([2]; PO (10 mg/kg)) was 17.4%. For the same compound, the “AUC (obs)” value ([2]; PO (50 mg/kg)) was 27.4 µM·h, the Cmax ([2]; PO (50 mg/kg)) was 9800 nM and the F % ([2]; PO (50 mg/kg)) was 37.9%. For the same compound, the T1/2 ([2]; PO (50 mg/kg)) was 3.9 h, the bioavailability ([2]; in vivo dosing, FIG. 23 and Table 7) was “good bioavailability” and the AUC(0-inf) ([2]; mouse, in vivo, IV (1 mg/kg)) was 1.5 µM·h. The half-life ([2]; mouse, in vivo, IV (1 mg/kg)) was 1.4 h, the AUC ([2]; mouse, in vivo, PO (10 mg/kg)) was 2.4 µM·h and the AUC(0-inf) ([2]; mouse, in vivo, PO (10 mg/kg)) was 2.6 µM·h. For the same compound, the half-life ([2]; mouse, in vivo, PO (10 mg/kg)) was 2 h, the AUC(0-inf) ([2]; mouse, in vivo, PO (50 mg/kg)) was 35.5 µM·h and the AUCExtr ([3]; IV at 1 mg/kg, Table 8A) was 1.1%. The AUClast ([3]; IV at 1 mg/kg, Table 8A) was 481.3 ng·h/mL, the C0 ([3]; IV at 1 mg/kg, Table 8A) was 1569.0 ng/mL and the CL ([3]; IV at 1 mg/kg, Table 8A) was 34.3 mL/min/kg. For the same compound, the MRTlnf ([3]; IV at 1 mg/kg, Table 8A) was 0.7 h, the T1/2 ([3]; IV at 1 mg/kg, Table 8A) was 1.4 h and the Vss ([3]; IV at 1 mg/kg, Table 8A) was 1.5 L/kg. The Vz ([3]; IV at 1 mg/kg, Table 8A) was 4.0 L/kg, the AUClast ([3]; PO 10 mg/kg, Table 8B) was 357.3 ng·h/mL and the AUClnf ([3]; PO 10 mg/kg, Table 8B) was 803.3 ng·h/mL. The MRTlnf ([3]; PO 10 mg/kg, Table 8B) was 17.4 h, the Vss ([3]; PO 10 mg/kg, Table 8B) was 2.5 L/kg and the AUC ([3]; in vivo, IV at 1 mg/kg, Table 8A) was 487 ng·h/mL. The C0 ([3]; in vivo, PO 10 mg/kg, Table 8B, read-out: C0) was 0.5 ng/mL, the “Visual inspection of crystallization” value ([4]; 1.6 μM) was 0 and the “Visual inspection of crystallization” value ([4]; 3.1 μM) was 0. The “Visual inspection of crystallization” value ([4]; 6.3 μM) was 0, the “Visual inspection of crystallization” value ([4]; 12.5 μM) was 0 and the “Visual inspection of crystallization” value ([4]; 25.0 μM) was 0. The “Visual inspection of crystallization” value ([4]; 50.0 μM) was 0, the “Toxicity (% positive for DAPI takeup @ 50 μM)” value (HeLa MKYP cells; Table 2) was 2.1% and the “Max cell death at 25 uM compound, 1 uM FO” value (HeLa MKYP cells; Table 3 Supplement B, 25 uM compound, 1 uM FO) was 10.7%. The “Cell death at 25 μM (no FO)” value (HeLa MKYP cells; Table 3 Supplement B, 25 μM, no FO) was 2.59%, the “Toxicity (% positive for DAPI takeup @ 50 μM)” value (HeLa MKYP cells; Table 4) was 2.4% and the “pS129 α-synuclein” value (pS129 α-synuclein) was “significantly reduces pS129 α-synuclein”. The “pS65 Ub (PINK1 substrate phosphorylation)” value (PINK1) was “significant increase in pS65 Ub in PINK1^wt cells but not in PINK1^ko cell lines”, the “Inspection of round cells” value ([5]; 1.6 μM) was 0 and the “Inspection of round cells” value ([5]; 3.1 μM) was 0. The “Inspection of round cells” value ([5]; 6.3 μM) was 0, the “Inspection of round cells” value ([5]; 12.5 μM) was 0 and the “Inspection of round cells” value ([5]; 25.0 μM) was 0. For the same compound, the “Inspection of round cells” value ([5]; 50.0 μM) was 0, the concentration at 0.5 h ([6]; brain, dose 10 mg/kg, read-out: Brain 0.5 h) was 526 ng/g and the concentration at 1 h ([6]; brain, dose 10 mg/kg, read-out: Brain 1 h) was 737 ng/g. The concentration at 2 h ([6]; brain, dose 10 mg/kg, read-out: Brain 2 h) was 435 ng/g, the concentration at 0.5 h ([6]; brain, dose 50 mg/kg, read-out: Brain 0.5 h) was 3340 ng/g and the concentration at 1 h ([6]; brain, dose 50 mg/kg, read-out: Brain 1 h) was 6370 ng/g. The concentration at 2 h ([6]; brain, dose 50 mg/kg, read-out: Brain 2 h) was 3980 ng/g, the concentration at 0.5 h ([6]; kidney, dose 10 mg/kg, read-out: Kidney 0.5) was 1050 ng/g and the concentration at 1 h ([6]; kidney, dose 10 mg/kg, read-out: Kidney 1) was 1290 ng/g. The concentration at 2 h ([6]; kidney, dose 10 mg/kg, read-out: Kidney 2) was 893 ng/g, the concentration at 0.5 h ([6]; kidney, dose 50 mg/kg, read-out: Kidney 0.5) was 6430 ng/g and the concentration at 1 h ([6]; kidney, dose 50 mg/kg, read-out: Kidney 1) was 11500 ng/g. For the same compound, the concentration at 2 h ([6]; kidney, dose 50 mg/kg, read-out: Kidney 2) was 7480 ng/g, the concentration at 0.5 h ([6]; plasma, dose 10 mg/kg, read-out: Plasma 0.5 h) was 372 ng/g and the concentration at 1 h ([6]; plasma, dose 10 mg/kg, read-out: Plasma 1 h) was 276 ng/g. The concentration at 2 h ([6]; plasma, dose 10 mg/kg, read-out: Plasma 2 h) was 146 ng/g, the concentration at 0.5 h ([6]; plasma, dose 50 mg/kg, read-out: Plasma 0.5 h) was 1900 ng/g and the concentration at 1 h ([6]; plasma, dose 50 mg/kg, read-out: Plasma 1 h) was 2080 ng/g. It also gave a concentration at 2 h ([6]; plasma, dose 50 mg/kg, read-out: Plasma 2 h) of 1420 ng/g.
